Measurements reported in publication PMC4552745, “Novel Gallate Triphenylphosphonium Derivatives with Potent Antichagasic Activity” (PLoS ONE, 2015).

Columns and labels:
[1] = system: T. cruzi trypomastigotes (Y strain); test: MTT reduction viability assay on isolated trypomastigotes; format: cell-based, Trypanosoma cruzi; details: for EC50: Trypanosoma cruzi, Y strain, 24 hours exposure, MTT assay, mean ± SD, read-out: EC50 T. cruzi trypomastigote; for Selectivity index (VERO/T. cruzi): ratio of EC50 VERO cells to EC50 T. cruzi trypomastigote; for potency relative to nifurtimox: trypomastigote viability, comparison of EC50
Experimental: (§1) Trypomastigotes (Y strain, DTU T. cruzi II) were obtained from infected VERO cells (Chlorocebus sabaeus kidney fibroblasts obtained from ATCC, ATCC number: CCL-81). The cells were exposed to trypomastigotes (Y strain) at a 3:1 density (trypomastigote:cell). The trypomastigotes were allowed to infect the cells for 24 h, and the supernatant was then extracted. The trypomastigotes were released from VERO cells at 4 days after infection. The parasites were harvested and collected for viability assays. The effect of the drugs on parasite viability was evaluated using the tetrazolium salt (MTT) reduction assay. […] Alternatively, VERO cells attached to the surface of 96-well plates were washed and incubated with MTT (5 mg/mL). After incubation for 4 h at 37°C, the generated formazan crystals were dissolved with 100 μL of 10% (w/v) sodium dodecyl sulfate (SDS) in 0.01 M HCl. The plates were then incubated overnight at 37°C, and the optical density (OD) was determined using a microplate reader (Labsystems Multiskan MS, Finland) at 570 nm. Under these conditions, the OD is directly proportional to the number of viable cells in each well [33, 34]. All of the experiments were performed at least three times. […] The data from each experiment were plotted using the formazan absorbance versus the log of the concentration, and the plot was fitted to the dose-response (four-parameters) equation using the software Graph Pad Prism V5.0, obtaining the EC50 value per drug and per experiment. The data are expressed as the mean ± DS of the EC50s obtained from each experiment.

[2] = system: VERO cells; test: MTT reduction viability assay on VERO cells; format: cell-based; details: Chlorocebus sabaeus, 24 hours exposure, mean ± SD
Experimental: as §1, with “The” for “Trypomastigotes (Y strain, DTU T. cruzi II) were obtained from infected VERO cells (Chlorocebus sabaeus kidney fibroblasts obtained from ATCC, ATCC number: CCL-81). The cells were exposed to trypomastigotes (Y strain) at a 3:1 density (trypomastigote:cell). The trypomastigotes were allowed to infect the cells for 24 h, and the supernatant was then extracted. The trypomastigotes were released from VERO cells at 4 days after infection. The parasites were harvested and collected for viability assays. The”

[3] = system: T. cruzi in infected RAW 264.7 cells; test: Parasite DNA load by real-time PCR in infected RAW cells; format: cell-based, Trypanosoma cruzi; details: infected RAW cells, 48 hours after treatment, Fig 4
Excerpt: DNA from infected RAW cells (murine macrophages, ATCC number: TIB-71) was isolated using Wizard Genomic DNA Purification Kit (Promega, USA) following the manufacturer’s instructions. DNA was quantified through […] absorbance measurements using a Varioskan spectrophotometer (Thermo Scientific, USA). To evaluate the parasite DNA load, we used a TaqMan-Duplex system, as described previously. To amplify an 84-bp T. cruzi satellite DNA sequence, we used the following primers: TcSt 4-Fw (5’-[…]-3’) and TcSt 1-Rev (5’-[…]-3’) and the TcSt-1 probe (5’-FAM-[…]-BHQ-1-3’). As an endogenous control, we used the Mus-F (5’-[…]-3’) and Mus-R (5’-[…]-3’) primers coupled with the MM-1 probe (5’-HEX-AAAGCATCTGCCTCCG-BHQ-1-3’) to amplify a 67-bp Mus musculus GAPDH sequence. The primers and probes were designed using Primer Express 3.0 Software (Applied Biosystems, USA) and manufactured by Integrated DNA Technologies (Coralville, IA, USA). The PCR reactions were performed using an ABI7300 real-time thermocycler (Applied Biosystems, USA). […] ROX was used as a reference dye. For both TaqMan assays, the thermal cycle consisted of a polymerase activation step carried out at 95°C for 10 min (one cycle) and a two-step amplification phase: 95°C for 15 s and 55°C for 45 s (40 cycles). Fluorescence was measured at the end of each amplification cycle. The data were analyzed using 7300 System SDS software with the SDS relative quantitation plug-in (Applied Biosystems, USA). All of the data were analyzed by the 2^-∆∆CT method, comparing the CTs of the T. cruzi gene versus that of GAPDH as well as comparing all of the samples with the controls. The parasite load is expressed as the relative DNA load compared with the controls.

[4] = system: T. cruzi trypomastigotes (Y strain) mitochondrial permeability transition pore; test: Mitochondrial permeability transition pore opening (calcein AM / CoCl2); format: cell-based, Trypanosoma cruzi; details: 5 μM, 1 hour, Fig 6B
Experimental: The opening of mitochondrial permeability transition pores was assessed using the calcein AM probe, adapting the method described by Huang et al (2014). Calcein-AM is a lipophilic probe that can enter the cell, including the mitochondria, and is then cleaved by cellular esterases, releasing the fluorescent probe calcein. T. cruzi trypomastigotes (Y strain, 5 x 10^6 parasites/mL) were stained with 100 nM calcein AM (Molecular Probes, Applied Biosytems, USA) and incubated at 37°C for 15 min in the presence of […] of CoCl2 to quench the cytosolic fluorescence of calcein. Then, the parasites were washed with PBS and resuspended in RPMI medium, without phenol red, supplemented with 0.3 mM of Ca^+2. The parasites were then seeded in 24-well plates and exposed to the different compounds (TPP^+-C8, TPP^+-C10, TPP^+-C11, and TPP^+-C12) at 1 or 5 μM for 1 hour. As a positive control, one group was exposed to ionomycin (0.5 μM). The samples were measured using a FACS Aria III flow cytometer (BD Biosciences, USA) with the 494/517 filter to detect calcein fluorescence. For every measurement, 5,000 events were recorded. The raw flow cytometry data were analyzed using FACSDiva 6.1 software (BD Biosciences). The results were analyzed using the median fluorescence intensity (MFI) from the frequency histograms. Thus, we used the median intensity of the control group (parasites incubated with calcein AM and CoCl2) to establish 100% of mitochondrial fluorescence, thereby establishing percent ratios between the treatment groups and the control.

[5] = system: Leishmania brasiliensis; parameters: method as in PMID 25144225; details: in vitro; cited from earlier work
[6] = system: T. cruzi epimastigotes; parameters: method as in PMID 17673202; details: cited from earlier work
[7] = system: Trypanosoma brucei; parameters: method as in PMID 9657042, PMID 9491765; details: Trypanosoma brucei models; cited from earlier work
[8] = system: Trypanosoma cruzi; parameters: method as in PMID 2121515; details: blood contaminated with Trypanosoma cruzi; cited from earlier work

Which EC50 [1] does the source give for `O=C(OCCCCCCCCCCC[P+](c1ccccc1)(c1ccccc1)c1ccccc1)c1cc(O)c(O)c(O)c1.[Br-]` [TPP^+-C11, triphenyl(11-((3,4,5-trihydroxybenzoyl)oxy)-undecyl) phosphonium bromide] here?
Its EC50 is 9.2 ± 0.1 µM.

What about the “Selectivity index (VERO/T. cruzi)” value [1] of the same molecule?
Its value is greater than 11.

And the “potency relative to nifurtimox” value [1]?
Its value is “almost equal in potency to nifurtimox”.

And the EC50 [2]?
The EC50 was greater than 100 µM.

And the “parasite load (qPCR)” value [3]?
Its value is “reduced the parasite load in a concentration-dependent manner”.

What about the “mitochondrial calcein fluorescence (median fluorescence intensity)” value [4] of the same molecule?
The value was 41 % of the control.

For `O=C(O[C@@H]1Cc2c(O)cc(O)cc2O[C@@H]1c1cc(O)c(O)c(O)c1)c1cc(O)c(O)c(O)c1` [EGCg, (-)-epigallocatechin 3-O-gallate], which “concentration at which the effect on viability is reached” value [5] is on record?
The value was “over 60 μM”.

What about the “concentration at which the antiproliferative effect is observed” value [6] of the same molecule?
The value was “over 500 μM”.

What does the source list for `O=C(OCCCCCCCC[P+](c1ccccc1)(c1ccccc1)c1ccccc1)c1cc(O)c(O)c(O)c1.[Br-]` [TPP^+-C8, triphenyl(8-((3,4,5-trihydroxybenzoyl)oxy)-octyl) phosphonium bromide]?
EC50 [1]: 4.8 ± 0.9 µM; Selectivity index (VERO/T. cruzi) [1]: > 21; potency relative to nifurtimox [1]: almost equal in potency to nifurtimox; EC50 [2]: > 100 µM; parasite load (qPCR) [3]: the lowest concentrations of TPP^+-C8 increased the parasite load

Which EC50 [7] does the source give for `O=C(O)c1cc(O)c(O)c(O)c1` [GA, Gallic acid] here?
The EC50 was greater than 30 µM.

And the “concentration range at which effects are exerted” value [8]?
The value was “millimolar range”.

Which results are given for `CC1CS(=O)(=O)CCN1/N=C/c1ccc([N+](=O)[O-])o1` (stereo not drawn) [Nifurtimox, reference compound]?
EC50 [1]: 4.1 ± 0.9 µM; Selectivity index (VERO/T. cruzi) [1]: > 24; EC50 [2]: > 100 µM
